From PubChem BioAssay (NCI)
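Following 48 hours of exposure in 96-well plates, responses at five concentrations were used to interpolate endpoints linearly. GI50 = concentration required for 50% inhibition of growth. Definition used: TGI = concentration required for complete inhibition of growth.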

Assays:
Test in all cases: growth of human tumour cells (NCI), 48 h
A498 renal = system: A498 renal
A549 NSCLC = system: A549 NSCLC
CAKI-1 renal = system: CAKI-1 renal
HCT-15 colon = system: HCT-15 colon
HOP-92 NSCLC = system: HOP-92 NSCLC
KM12 colon = system: KM12 colon
MALME-3M melanoma = system: MALME-3M melanoma
OVCAR-5 ovarian = system: OVCAR-5 ovarian
SF-539 CNS = system: SF-539 CNS
SK-MEL-2 melanoma = system: SK-MEL-2 melanoma

Compound: N=C1C=C(N)C(=O)c2ccccc21
- GI50 (A498 renal): 1.57 µM
- TGI (A498 renal): 2.95 µM
- GI50 (A549 NSCLC): 1.04 µM
- TGI (A549 NSCLC): 2.7 µM
- GI50 (CAKI-1 renal): 0.187 µM
- TGI (CAKI-1 renal): 0.379 µM
- GI50 (HCT-15 colon): 0.225 µM
- TGI (HCT-15 colon): 0.578 µM
- GI50 (HOP-92 NSCLC): 0.207 µM
- TGI (HOP-92 NSCLC): 0.496 µM
- GI50 (KM12 colon): 0.322 µM
- TGI (KM12 colon): 1.26 µM
- GI50 (MALME-3M melanoma): 0.173 µM
- TGI (MALME-3M melanoma): 0.321 µM
- GI50 (OVCAR-5 ovarian): 0.184 µM
- TGI (OVCAR-5 ovarian): 0.373 µM
- GI50 (SF-539 CNS): 0.181 µM
- TGI (SF-539 CNS): 0.347 µM
- GI50 (SK-MEL-2 melanoma): 0.189 µM
- TGI (SK-MEL-2 melanoma): 0.373 µM

Compound: Cc1nc2sc(C(=O)Nc3ccccc3)c(N)c2cc1C(=O)c1ccccc1
- GI50 (A498 renal): 0.216 µM
- TGI (A498 renal): 3.72 µM
- GI50 (A549 NSCLC): 0.853 µM
- TGI (A549 NSCLC): > 50 µM
- GI50 (CAKI-1 renal): 3.29 µM
- TGI (CAKI-1 renal): > 50 µM
- GI50 (HCT-15 colon): 2.19 µM
- TGI (HCT-15 colon): > 50 µM
- GI50 (HOP-92 NSCLC): 9.47 µM
- TGI (HOP-92 NSCLC): > 50 µM
- GI50 (KM12 colon): 2.04 µM
- TGI (KM12 colon): > 50 µM
- GI50 (MALME-3M melanoma): 5.5 µM
- TGI (MALME-3M melanoma): > 50 µM
- GI50 (OVCAR-5 ovarian): 2.9 µM
- TGI (OVCAR-5 ovarian): > 50 µM
- GI50 (SF-539 CNS): 1.66 µM
- TGI (SF-539 CNS): > 50 µM
- GI50 (SK-MEL-2 melanoma): 2.83 µM
- TGI (SK-MEL-2 melanoma): > 50 µM

Compound: Cc1c(Cl)cccc1NC(=O)C(=O)c1c(O)c2ccc(O)cc2oc1=O
- TGI (A498 renal): > 100 µM
- TGI (A549 NSCLC): > 100 µM
- TGI (CAKI-1 renal): > 100 µM
- TGI (HCT-15 colon): > 100 µM
- TGI (HOP-92 NSCLC): > 100 µM
- TGI (KM12 colon): > 100 µM
- TGI (MALME-3M melanoma): > 100 µM
- TGI (OVCAR-5 ovarian): > 100 µM
- TGI (SF-539 CNS): > 100 µM
- TGI (SK-MEL-2 melanoma): > 100 µM

Compound: Cn1cc(-c2csc(-c3cn(C(=O)OC(C)(C)C)c4ccccc34)n2)c2cccnc21
- GI50 (A498 renal): 3.86 µM
- TGI (A498 renal): 14.4 µM
- GI50 (A549 NSCLC): 6.04 µM
- TGI (A549 NSCLC): 31.2 µM
- GI50 (CAKI-1 renal): 3.06 µM
- TGI (CAKI-1 renal): 24.8 µM
- GI50 (HCT-15 colon): 6.35 µM
- TGI (HCT-15 colon): 37.7 µM
- GI50 (HOP-92 NSCLC): 3.81 µM
- TGI (HOP-92 NSCLC): 19.9 µM
- GI50 (KM12 colon): 2.78 µM
- TGI (KM12 colon): 9.57 µM
- GI50 (MALME-3M melanoma): 14.6 µM
- TGI (MALME-3M melanoma): 40.8 µM
- GI50 (OVCAR-5 ovarian): 14.6 µM
- TGI (OVCAR-5 ovarian): 29.9 µM
- GI50 (SF-539 CNS): 3.51 µM
- TGI (SF-539 CNS): 17.4 µM
- GI50 (SK-MEL-2 melanoma): 13.8 µM
- TGI (SK-MEL-2 melanoma): 36.3 µM

Compound: CN(C)C(=S)/N=c1\ss/c(=N\S(=O)(=O)c2ccccc2)n1C
- TGI (A498 renal): > 100 µM
- TGI (A549 NSCLC): > 100 µM
- TGI (CAKI-1 renal): > 100 µM
- TGI (HCT-15 colon): > 100 µM
- TGI (HOP-92 NSCLC): > 100 µM
- TGI (KM12 colon): > 100 µM
- TGI (MALME-3M melanoma): > 100 µM
- TGI (OVCAR-5 ovarian): > 100 µM
- TGI (SF-539 CNS): > 100 µM
- TGI (SK-MEL-2 melanoma): > 100 µM

Compound: O=C(/C=C/c1ccc(Cl)cc1Cl)c1ccc(Cl)cc1Cl
- GI50 (A498 renal): 20.7 µM
- TGI (A498 renal): 48.5 µM
- GI50 (A549 NSCLC): 19.9 µM
- TGI (A549 NSCLC): 47.2 µM
- GI50 (CAKI-1 renal): 36 µM
- TGI (CAKI-1 renal): > 92.8 µM
- GI50 (HCT-15 colon): 14.4 µM
- TGI (HCT-15 colon): 31 µM
- GI50 (HOP-92 NSCLC): 50.8 µM
- TGI (HOP-92 NSCLC): > 76.1 µM
- GI50 (KM12 colon): 13.5 µM
- TGI (KM12 colon): 30.4 µM
- GI50 (MALME-3M melanoma): 13.9 µM
- TGI (MALME-3M melanoma): 35.6 µM
- GI50 (OVCAR-5 ovarian): 21.7 µM
- TGI (OVCAR-5 ovarian): 49.1 µM
- GI50 (SF-539 CNS): 20.7 µM
- TGI (SF-539 CNS): > 54.9 µM
- GI50 (SK-MEL-2 melanoma): 1.63 µM

Compound: CC1=C(SCCC(=O)OC(C[Se]C2=C(C)C(=O)c3ccccc3C2=O)C(=O)NC(C)(C)C)C(=O)c2ccccc2C1=O (centres undefined)
- GI50 (A498 renal): 1.55 µM
- TGI (A498 renal): 2.97 µM
- GI50 (A549 NSCLC): 1.11 µM
- TGI (A549 NSCLC): 4.59 µM
- GI50 (CAKI-1 renal): 1.65 µM
- TGI (CAKI-1 renal): 3.36 µM
- GI50 (HCT-15 colon): 1.47 µM
- TGI (HCT-15 colon): 3.11 µM
- GI50 (HOP-92 NSCLC): 0.793 µM
- TGI (HOP-92 NSCLC): 2.13 µM
- GI50 (KM12 colon): 0.86 µM
- TGI (KM12 colon): 2.18 µM
- GI50 (MALME-3M melanoma): 2.01 µM
- TGI (MALME-3M melanoma): 3.89 µM
- GI50 (OVCAR-5 ovarian): 1.69 µM
- TGI (OVCAR-5 ovarian): 3.08 µM
- GI50 (SF-539 CNS): 1.44 µM
- TGI (SF-539 CNS): 2.75 µM
- GI50 (SK-MEL-2 melanoma): 2.04 µM
- TGI (SK-MEL-2 melanoma): 3.65 µM
